In ChEMBL document CHEMBL4270553, “Synthesis and anticancer activity of new dihydropyrimidinone derivatives” (Eur J Med Chem, 2018):

Key:
HeLa = assay: Cytotoxicity against human HeLa cells; assay type: functional, cell-based
MOLT-4 = assay: Antiproliferative activity against human MOLT4 cells assessed as growth inhibition at 10 uM after 48 hrs by sulforhodamine B assay relative to control; assay type: functional; details: MOLT-4, 48 h, read-out: GI
A549 = assay: Antiproliferative activity against human A549/ATCC cells assessed as growth inhibition at 10 uM after 48 hrs by sulforhodamine B assay relative to control; assay type: functional; details: A549, 48 h, read-out: GI
MDA-MB-468 = assay: Antiproliferative activity against human MDA-MB-468 cells assessed as growth inhibition at 10 uM after 48 hrs by sulforhodamine B assay relative to control; assay type: functional; details: MDA-MB-468, 48 h, read-out: GI
NCI-H322M = assay: Antiproliferative activity against human NCI-H322M cells assessed as growth inhibition at 10 uM after 48 hrs by sulforhodamine B assay relative to control; assay type: functional; details: read-out: GI
SR = assay: Antiproliferative activity against human SR cells assessed as growth inhibition at 10 uM after 48 hrs by sulforhodamine B assay relative to control; assay type: functional; details: read-out: GI
PC-3 [1] = assay: Antiproliferative activity against human PC3 cells assessed as growth inhibition at 10 uM after 48 hrs by sulforhodamine B assay relative to control; assay type: functional; details: PC-3, 48 h, read-out: GI
CAKI-1 = assay: Antiproliferative activity against human Caki1 cells assessed as growth inhibition at 10 uM after 48 hrs by sulforhodamine B assay relative to control; assay type: functional; details: CAKI-1, 48 h, read-out: GI
OVCAR-4 = assay: Antiproliferative activity against human OVCAR4 cells assessed as growth inhibition at 10 uM after 48 hrs by sulforhodamine B assay relative to control; assay type: functional; details: OVCAR-4, 48 h, read-out: GI
HL-60(TB) = assay: Antiproliferative activity against human HL-60(TB) cells assessed as growth inhibition at 10 uM after 48 hrs by sulforhodamine B assay relative to control; assay type: functional; details: HL-60, 48 h, read-out: GI
ACHN = assay: Antiproliferative activity against human ACHN cells assessed as growth inhibition at 10 uM after 48 hrs by sulforhodamine B assay relative to control; assay type: functional; details: read-out: GI
UACC-62 = assay: Antiproliferative activity against human UACC62 cells assessed as growth inhibition at 10 uM after 48 hrs by sulforhodamine B assay relative to control; assay type: functional; details: UACC-62, 48 h, read-out: GI
SF-295 = assay: Antiproliferative activity against human SF295 cells assessed as growth inhibition at 10 uM after 48 hrs by sulforhodamine B assay relative to control; assay type: functional; details: SF-295, 48 h, read-out: GI
HCT-15 = assay: Antiproliferative activity against human HCT15 cells assessed as growth inhibition at 10 uM after 48 hrs by sulforhodamine B assay relative to control; assay type: functional; details: HCT-15, 48 h, read-out: GI
T47D = assay: Antiproliferative activity against human T47D cells assessed as growth inhibition at 10 uM after 48 hrs by sulforhodamine B assay relative to control; assay type: functional; details: read-out: GI
NCI-H460 = assay: Antiproliferative activity against human NCI-H460 cells assessed as growth inhibition at 10 uM after 48 hrs by sulforhodamine B assay relative to control; assay type: functional; details: NCI-H460, 48 h, read-out: GI
NCI-H522 = assay: Antiproliferative activity against human NCI-H522 cells assessed as growth inhibition at 10 uM after 48 hrs by sulforhodamine B assay relative to control; assay type: functional; details: NCI-H522, 48 h, read-out: GI
NCI/ADR-RES = assay: Antiproliferative activity against human NCI/ADR-RES cells assessed as growth inhibition at 10 uM after 48 hrs by sulforhodamine B assay relative to control; assay type: functional; details: read-out: GI
SK-MEL-5 = assay: Antiproliferative activity against human SK-MEL-5 cells assessed as growth inhibition at 10 uM after 48 hrs by sulforhodamine B assay relative to control; assay type: functional; details: SK-MEL-5, 48 h, read-out: GI
HCT-116 [2] = assay: Antiproliferative activity against human HCT116 cells assessed as growth inhibition at 10 uM after 48 hrs by sulforhodamine B assay relative to control; assay type: functional; details: HCT-116, 48 h, read-out: GI
K562 = assay: Antiproliferative activity against human K562 cells assessed as growth inhibition at 10 uM after 48 hrs by sulforhodamine B assay relative to control; assay type: functional; details: K562, 48 h, read-out: GI
UO-31 = assay: Antiproliferative activity against human UO31 cells assessed as growth inhibition at 10 uM after 48 hrs by sulforhodamine B assay relative to control; assay type: functional; details: UO-31, 48 h, read-out: GI
LOX IMVI = assay: Antiproliferative activity against human LOXIMVI cells assessed as growth inhibition at 10 uM after 48 hrs by sulforhodamine B assay relative to control; assay type: functional; details: read-out: GI
MCF7 [3] = assay: Antiproliferative activity against human MCF7 cells assessed as growth inhibition at 10 uM after 48 hrs by sulforhodamine B assay relative to control; assay type: functional; details: MCF7, 48 h, read-out: GI
BJ = assay: Cytotoxicity against human BJ cells; assay type: cell-based
MRC5 = assay: Cytotoxicity against human MRC5 cells; assay type: cell-based
[4] = Cytotoxicity against human WPE1-NA22 cells; assay type: cell-based
[5] = biological target: Serine/threonine-protein kinase mTOR (Homo sapiens, UniProt P42345); assay: Inhibition of mTOR (unknown origin) incubated for 1 hr by ELISA relative to control; details: concentration not given here
MCF7 [6] = assay: Cytotoxicity against human MCF7 cells after 24 hrs by MTT assay; assay type: functional, cell-based; details: MCF7, 24 h
HCT-116 [7] = assay: cells; details: Homo sapiens, HCT-116, 24 h
Description: Cytotoxicity against human HCT116 cells after 24 hrs by MTT assay

PC-3 [8] = assay: cells; details: Homo sapiens, PC-3, 24 h
Description: Cytotoxicity against human PC3 cells after 24 hrs by MTT assay

| Structure (SMILES) | inhibition of growth at 10 µM (MOLT-4) [%] | inhibition of growth at 10 µM (A549) [%] | inhibition of growth at 10 µM (MDA-MB-468) [%] | inhibition of growth at 10 µM (NCI-H322M) [%] | inhibition of growth at 10 µM (SR) [%] | inhibition of growth at 10 µM (PC-3 [1]) [%] | inhibition of growth at 10 µM (CAKI-1) [%] | inhibition of growth at 10 µM (OVCAR-4) [%] | inhibition of growth at 10 µM (HL-60(TB)) [%] | inhibition of growth at 10 µM (ACHN) [%] | inhibition of growth at 10 µM (UACC-62) [%] | inhibition of growth at 10 µM (SF-295) [%] | inhibition of growth at 10 µM (HCT-15) [%] | inhibition of growth at 10 µM (T47D) [%] | inhibition of growth at 10 µM (NCI-H460) [%] | inhibition of growth at 10 µM (NCI-H522) [%] | inhibition of growth at 10 µM (NCI/ADR-RES) [%] | inhibition of growth at 10 µM (SK-MEL-5) [%] | inhibition of growth at 10 µM (HCT-116 [2]) [%] | inhibition of growth at 10 µM (K562) [%] | other results |
| --- | --- | --- | --- | --- | --- | --- | --- | --- | --- | --- | --- | --- | --- | --- | --- | --- | --- | --- | --- | --- | --- |
| CNC(=O)c1cc(Oc2ccc(NC(=O)Nc3ccc(Cl)c(C(F)(F)F)c3)cc2)ccn1 [SORAFENIB] |  |  |  |  |  |  |  |  |  |  |  |  |  |  |  |  |  |  |  |  | IC50 (HeLa): 0.64 µM |
| CCOC(=O)C1=C(CSC(=S)N2CCN(c3ccccc3)CC2)N(C)C(=O)NC1c1ccccc1 (configuration not stated) | 24 | 27 | 14 | 15 | 44 | 41 | 15 | 15 | 20 | 11 | 24 | 17 | 48 | 37 | 12 | 28 | 5 | 23 | 41 | 22 | inhibition of growth at 10 µM (UO-31): 37%; inhibition of growth at 10 µM (LOX IMVI): 13%; inhibition of growth at 10 µM (MCF7 [3]): 15% |
| COc1cccc2c1C(=O)c1c(O)c3c(c(O)c1C2=O)C[C@@](O)(C(=O)CO)C[C@@H]3O[C@H]1C[C@H](N)[C@H](O)[C@H](C)O1 [DOXORUBICIN] |  |  |  |  |  |  |  |  |  |  |  |  |  |  |  |  |  |  |  |  | IC50 (BJ): 17.6 µM; IC50 (MRC5): 14.8 µM; IC50 [4]: 18.2 µM |
| CCOC(=O)C1=C(CN(C2CCCCC2)C2CCCCC2)N(C)C(=O)NC1c1ccccc1 (configuration not stated) | 35 | 33 | 21 | 5 | 20 | 58 | 30 | 26 | 37 | 13 | 23 | 19 | 11 | 46 | 13 | 18 | 7 | 19 | 33 | 31 | inhibition of growth at 10 µM (UO-31): 27%; inhibition of growth at 10 µM (LOX IMVI): 13%; inhibition of growth at 10 µM (MCF7 [3]): 36% |
| CCOC(=O)C1=C(CSC(=S)N2CCN(c3ccc(OC)cc3)CC2)N(C)C(=O)NC1c1ccccc1 (configuration not stated) | 49 | 33 | 21 | 17 | 63 | 53 | 26 | 29 | 32 | 21 | 42 | 15 | 60 | 59 | 39 | 37 | 13 | 51 | 57 | 47 | inhibition of growth at 10 µM (UO-31): 55%; inhibition of growth at 10 µM (LOX IMVI): 33%; inhibition of growth at 10 µM (MCF7 [3]): 30% |
| CCOC(=O)C1=C(CSC(=S)N2CCCCC2)N(C)C(=O)NC1c1ccccc1 (configuration not stated) | 30 | 29 | 20 | 15 | 27 | 27 | 17 | 16 | 33 | 15 | 28 | 13 | 35 | 45 | 10 | 25 | 12 | 25 | 34 | 20 | inhibition of growth at 10 µM (UO-31): 29%; inhibition of growth at 10 µM (LOX IMVI): 11%; inhibition of growth at 10 µM (MCF7 [3]): 12% |
| CO[C@H]1C[C@@H]2CC[C@@H](C)[C@@](O)(O2)C(=O)C(=O)N2CCCC[C@H]2C(=O)O[C@H]([C@H](C)C[C@@H]2CC[C@@H](O)[C@H](OC)C2)CC(=O)[C@H](C)/C=C(\C)[C@@H](O)[C@@H](OC)C(=O)[C@H](C)C[C@H](C)/C=C/C=C/C=C/1C [SIROLIMUS] |  |  |  |  |  |  |  |  |  |  |  |  |  |  |  |  |  |  |  |  | IC50 (HeLa): 0.77 µM; inhibition [5]: 94.9% |
| CCOC(=O)C1=C(CSc2nc3cc(C)ccc3[nH]2)N(C)C(=O)NC1c1ccccc1 (configuration not stated) |  |  |  |  |  |  |  |  |  |  |  |  |  |  |  |  |  |  |  |  | IC50 (MCF7 [6]): 19.4 µM; IC50 (HCT-116 [7]): 9.5 µM; IC50 (PC-3 [8]): 22.3 µM |
| CCOC(=O)C1=C(CSC(=S)N2CCN(c3ccccc3OCC)CC2)N(C)C(=O)NC1c1ccccc1 (configuration not stated) |  |  |  |  |  |  |  |  |  |  |  |  |  |  |  |  |  |  |  |  | IC50 (MCF7 [6]): 53.8 µM; IC50 (HCT-116 [7]): 67.6 µM; IC50 (PC-3 [8]): 72.3 µM |
| CCOC(=O)C1=C(CSc2nnc(-c3ccc(C)cc3)o2)N(C)C(=O)NC1c1ccccc1 (configuration not stated) |  |  |  |  |  |  |  |  |  |  |  |  |  |  |  |  |  |  |  |  | IC50 (MCF7 [6]): 25.3 µM; IC50 (HCT-116 [7]): 36 µM; IC50 (PC-3 [8]): 61.8 µM |
